Results reported in PMC11396803, “Synthesis of Tumor Selective Indole and 8-Hydroxyquinoline Skeleton Containing Di-, or Triarylmethanes with Improved Cytotoxic Activity” (Molecules, 2024).
Read-outs that look alike come from different tables or passages of the source.

Tests used:
Assay type in all cases: cell-based, human
[1] = test system: Colo205 colon adenocarcinoma cell line; assay: MTT cytotoxicity assay on doxorubicin-sensitive Colo205 cells; settings: for IC50: Homo sapiens, COLO 205; for IC50 / Cytotoxic effect on Colo205 cells (in words): MTT; for Cytotoxic effect on Colo205 cells (in words): up to 100 µM; for Selectivity index SI MRC-5/Colo205: ratio of IC50 in non-tumor MRC-5 cells and IC50 in Colo205
Protocol: (§1) The doxorubicin-sensitive Colo205 (ATCC-CCL-222) and the doxorubicin-resistant ABCB1- and LRP-expressing Colo320/MDR-LRP (ATCC-CCL-220.1) human colon adenocarcinoma cell lines were obtained from LGC Promochem in Teddington, UK. These cell lines were cultivated in RPMI 1640 medium supplemented with 10% heat-inactivated foetal bovine serum (FBS), 2 mM L-glutamine, 1 mM Na-pyruvate, 10 mM HEPES, along with nystatin, and gentamicin. The normal MRC-5 (ATCC CCL-171) human embryonic lung fibroblast cell line was purchased from Sigma-Aldrich (Merck KGaA, Darmstadt, Germany). The MRC-5 cells were cultured in EMEM medium, supplemented with 1% non-essential amino acid (NEAA) mixture, a selection of vitamins, 10% heat-inactivated FBS, 2 mM L-glutamine, 1 mM Na pyruvate, nystatin, and gentamicin. The cell lines were incubated in humidified atmosphere (5% CO2, 95% air) at 37 °C. The cells were detached with a Trypsin-Versene (EDTA) solution for 5 min at 37 °C.
(§2) The effects of increasing concentrations of the compounds on cell growth were tested in 96-well flat-bottomed microtiter plates. Namely, 1 × 10^4 of human colonic adenocarcinoma cells in 100 μL of the medium (RPMI 1640) were added to each well, except for the medium control wells. The adherent human embryonic lung fibroblast cell line was seeded in the EMEM medium for 24 h before the assay. The two-fold serial dilutions of the compounds were made in a separate plate (100–0.19 μM) and then transferred to the plates containing the cells. The starting concentration of the solvent DMSO was 2% v/v, and the highest concentration of the compounds in the plate was 100 μM. Plates were incubated at 37 °C for 24 h. At the end of the incubation, 20 μL of MTT (thiazolyl blue tetrazolium bromide) solution (from a 5 mg/mL stock solution) was added to each well. After incubation at 37 °C for 4 h, 100 μL of sodium dodecyl sulfate (SDS) solution (10% SDS in 0.01 M HCl) was added to each well, and the plates were further incubated at 37 °C overnight. Cell growth was determined by measuring the optical density (OD) at 540 nm (ref. 630 nm) with a Multiscan EX ELISA reader (Thermo Labsystems, Cheshire, WA, USA). Inhibition of cell growth was expressed as IC50 values, defined as the inhibitory dose that reduces the growth of the cells exposed to the tested compounds by 50%. IC50 values and the SD of triplicate and duplicate (in the case of MRC-5) experiments were calculated by using GraphPad Prism software version 5.00 for Windows, with a non-linear regression curve fit (GraphPad Software, San Diego, CA, USA; www.graphpad.com, accessed on 12 July 2021). Doxorubicin (from a 2 mg/mL stock solution, Teva Pharmaceuticals) was used as a positive control. […] The relative resistance (RR) was calculated as the ratio of the IC50 value in the resistant cancer cells and the IC50 value in the sensitive cancer cell lines. The selectivity indexes (SI) were calculated as the ratio of the IC50 value in the non-tumor cells and the IC50 value in the cancer cell lines. The activity of the compounds towards cancer cells is considered to be strongly selective if the selectivity index (SI) value is higher than 6, moderately selective if 3 < SI < 6, slightly selective if 1 < SI < 3, and non-selective if the SI is lower than 1 [22].

[2] = test system: MRC-5 embryonic lung fibroblast cell line; assay: MTT cytotoxicity assay on normal MRC-5 fibroblasts; settings: for IC50: Homo sapiens; for Cytotoxic effect on normal MRC-5 cells (in words): up to 100 µM
Protocol: as §1, §2

[3] = test system: Colo320/MDR-LRP colon adenocarcinoma cell line; assay: MTT cytotoxicity assay on doxorubicin-resistant, ABCB1- and LRP-expressing Colo320 cells; settings: for IC50: Homo sapiens, COLO 320; for IC50 / Cytotoxic effect on Colo320 cells (in words): MTT; for Cytotoxic effect on Colo320 cells (in words): up to 100 µM; for Selectivity index SI MRC-5/Colo320: ratio of IC50 in non-tumor MRC-5 cells and IC50 in Colo320
Protocol: as §1, §2

[4] = 24 h incubation, average of 3 parallel experiments, read-out: IC50 Colo205 AV ± SD
[5] = MRC5, 24 h incubation, average of 2 parallel experiments, read-out: IC50 MRC-5 AV ± SD
[6] = 24 h incubation, average of 3 parallel experiments, read-out: IC50 Colo320 AV ± SD
[7] = 24 h, single experiment, read-out: IC50 Colo320, parallel experiment 1
[8] = 24 h, single experiment, read-out: IC50 Colo320, parallel experiment 2
[9] = 24 h, single experiment, read-out: IC50 Colo320, parallel experiment 3
[10] = 24 h, single experiment, read-out: IC50 Colo205, parallel experiment 1
[11] = 24 h, single experiment, read-out: IC50 Colo205, parallel experiment 2
[12] = 24 h, single experiment, read-out: IC50 Colo205, parallel experiment 3
[13] = MRC5, 24 h, single experiment, read-out: IC50 MRC-5, parallel experiment 1
[14] = MRC5, 24 h, single experiment, read-out: IC50 MRC-5, parallel experiment 2

O=C1Oc2ccc3ccccc3c2C1c1c[nH]c2ccccc12 (stereo not shown) [Compound 3, 1-(1H-indol-3-yl)naphtho[2,1-b]furan-2(1H)-one]
IC50 [1, 4]: > 100 µM | Cytotoxic effect on Colo205 cells (in words) [1]: no effect | IC50 [2, 5]: > 100 µM | IC50 [3, 6]: > 100 µM | Cytotoxic effect on Colo320 cells (in words) [3]: no effect

CCOC(=O)C(c1ccc2ccccc2c1O)c1c[nH]c2ccccc12 (stereo not shown) [Compound 7, Ethyl 2-(1-hydroxynaphthalen-2-yl)-2-(1H-indol-3-yl)acetate]
IC50 [1, 4]: > 100 µM | Cytotoxic effect on Colo205 cells (in words) [1]: no effect | IC50 [2, 5]: > 100 µM | IC50 [3, 7]: 53.8 µM | IC50 [3, 8]: 54.9 µM | IC50 [3, 9]: 52.2 µM | IC50 [3, 6]: 53.6 ± 1.38 µM

CCOC(=O)C(c1cc(Cl)c2cccnc2c1O)N1CCOCC1 (stereo not shown) [Compound 10, Ethyl 2-(5-chloro-8-hydroxyquinolin-7-yl)-2-morpholinoacetate]
IC50 [1, 10]: 2.07 µM | IC50 [1, 11]: 2.06 µM | IC50 [1, 12]: 2.02 µM | IC50 [1, 4]: 2.05 ± 0.02 µM | Selectivity index SI MRC-5/Colo205 [1]: >6 | IC50 [2, 5]: > 100 µM | Cytotoxic effect on normal MRC-5 cells (in words) [2]: no toxicity | IC50 [3, 7]: 1.56 µM | IC50 [3, 8]: 1.81 µM | IC50 [3, 9]: 1.79 µM | IC50 [3, 6]: 1.72 ± 0.14 µM | Selectivity index SI MRC-5/Colo320 [3]: >6

CCOC(=O)C(c1cc(Cl)c2cccnc2c1O)c1c[nH]c2ccccc12 (stereo not shown) [Compound 11, Ethyl 2-(5-chloro-8-hydroxyquinolin-7-yl)-2-(1H-indol-3-yl)acetate]
IC50 [1, 10]: 5.51 µM | IC50 [1, 11]: 4.71 µM | IC50 [1, 12]: 4.42 µM | IC50 [1, 4]: 4.88 ± 0.56 µM | Selectivity index SI MRC-5/Colo205 [1]: 11.2 | IC50 [2, 13]: 54.5 µM | IC50 [2, 14]: 55.1 µM | IC50 [2, 5]: 54.77 ± 0.44 µM | Cytotoxic effect on normal MRC-5 cells (in words) [2]: mild cytotoxic effect | IC50 [3, 7]: 4.64 µM | IC50 [3, 8]: 4.83 µM | IC50 [3, 9]: 4.96 µM | IC50 [3, 6]: 4.81 ± 0.16 µM | Selectivity index SI MRC-5/Colo320 [3]: 11.4

CCOC(=O)C(c1cc(Cl)c2cccnc2c1O)c1c[nH]c2ncccc12 (stereo not shown) [Compound 12, Ethyl 2-(5-chloro-8-hydroxyquinolin-7-yl)-2-(7-azaindole-3-yl)acetate]
IC50 [1, 10]: 8.05 µM | IC50 [1, 11]: 7.42 µM | IC50 [1, 12]: 8.84 µM | IC50 [1, 4]: 8.11 ± 0.71 µM | Selectivity index SI MRC-5/Colo205 [1]: 5.7 | IC50 [2, 13]: 46.9 µM | IC50 [2, 14]: 45.6 µM | IC50 [2, 5]: 46.2 ± 0.95 µM | Cytotoxic effect on normal MRC-5 cells (in words) [2]: mild cytotoxic effect | IC50 [3, 7]: 5.16 µM | IC50 [3, 8]: 4.92 µM | IC50 [3, 9]: 5.11 µM | IC50 [3, 6]: 5.06 ± 0.12 µM | Selectivity index SI MRC-5/Colo320 [3]: 9.1

Oc1c(C(c2ccccc2)c2c[nH]c3ccccc23)cc(Cl)c2cccnc12 (stereo not shown) [Compound 14, 7-((1H-indol-3-yl)(phenyl)methyl)-5-chloroquinolin-8-ol]
IC50 [1, 10]: 2.49 µM | IC50 [1, 11]: 2.49 µM | IC50 [1, 12]: 2.63 µM | IC50 [1, 4]: 2.53 ± 0.08 µM | Selectivity index SI MRC-5/Colo205 [1]: 11.7 | IC50 [2, 13]: 30.1 µM | IC50 [2, 14]: 29.3 µM | IC50 [2, 5]: 29.7 ± 0.57 µM | Cytotoxic effect on normal MRC-5 cells (in words) [2]: mild cytotoxic effect | IC50 [3, 7]: 2.55 µM | IC50 [3, 8]: 2.84 µM | IC50 [3, 9]: 2.78 µM | IC50 [3, 6]: 2.72 ± 0.15 µM | Selectivity index SI MRC-5/Colo320 [3]: 11

Oc1c(Cc2c[nH]c3ccccc23)cc(Cl)c2cccnc12 [Compound 16, 7-((1H-indol-3-yl)methyl)-5-chloroquinolin-8-ol]
IC50 [1, 10]: 13.6 µM | IC50 [1, 11]: 13.4 µM | IC50 [1, 12]: 12.3 µM | IC50 [1, 4]: 13.1 ± 0.7 µM | Selectivity index SI MRC-5/Colo205 [1]: >6 | IC50 [2, 5]: > 100 µM | Cytotoxic effect on normal MRC-5 cells (in words) [2]: no toxicity | IC50 [3, 7]: 4.97 µM | IC50 [3, 8]: 4.74 µM | IC50 [3, 9]: 4.91 µM | IC50 [3, 6]: 4.87 ± 0.12 µM | Cytotoxic effect on Colo320 cells (in words) [3]: potent toxic activity | Selectivity index SI MRC-5/Colo320 [3]: >6

Oc1c(Cc2c[nH]c3ncccc23)cc(Cl)c2cccnc12 [Compound 17, 7-((7-azaindole-3-yl)methyl)-5-chloroquinolin-8-ol]
IC50 [1, 10]: 36.5 µM | IC50 [1, 11]: 39.4 µM | IC50 [1, 12]: 40.4 µM | IC50 [1, 4]: 38.8 ± 2.03 µM | IC50 [2, 5]: > 100 µM | IC50 [3, 7]: 23 µM | IC50 [3, 8]: 21.9 µM | IC50 [3, 9]: 22.5 µM | IC50 [3, 6]: 22.5 ± 0.55 µM

COc1cccc2c1C(=O)c1c(O)c3c(c(O)c1C2=O)C[C@@](O)(C(=O)CO)C[C@@H]3O[C@H]1C[C@H](N)[C@H](O)[C@H](C)O1 [DOX, Doxorubicin, reference compound]
IC50 [1, 10]: 0.84 µM | IC50 [1, 11]: 0.89 µM | IC50 [1, 12]: 0.81 µM | IC50 [1, 4]: 0.85 ± 0.04 µM | IC50 [2, 5]: > 8.62 µM | IC50 [3, 7]: 3.12 µM | IC50 [3, 8]: 3.12 µM | IC50 [3, 9]: 2.96 µM | IC50 [3, 6]: 3.07 ± 0.09 µM
